Legend:
[1] = biological target: T1, Enterobactin synthase component E (Escherichia coli K-12, UniProt P10378); assay: Binding affinity to EntE; settings: read-out: Ki app
T1 sequence (P10378 whole entry): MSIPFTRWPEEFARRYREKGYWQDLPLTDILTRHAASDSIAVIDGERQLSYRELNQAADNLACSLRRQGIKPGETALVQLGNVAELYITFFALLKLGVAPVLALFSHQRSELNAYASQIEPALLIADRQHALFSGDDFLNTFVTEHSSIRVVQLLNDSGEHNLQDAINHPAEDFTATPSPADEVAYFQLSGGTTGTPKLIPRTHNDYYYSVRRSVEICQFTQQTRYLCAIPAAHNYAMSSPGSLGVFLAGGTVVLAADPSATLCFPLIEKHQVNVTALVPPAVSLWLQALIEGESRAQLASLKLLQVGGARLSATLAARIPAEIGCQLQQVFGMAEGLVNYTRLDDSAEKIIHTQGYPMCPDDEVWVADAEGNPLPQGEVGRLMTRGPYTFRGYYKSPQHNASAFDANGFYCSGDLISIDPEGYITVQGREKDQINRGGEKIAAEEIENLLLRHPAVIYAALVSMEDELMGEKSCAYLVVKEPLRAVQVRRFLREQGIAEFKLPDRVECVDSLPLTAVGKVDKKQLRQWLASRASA

[2] = biological target: T1, Enterobactin synthase component E; assay: Binding affinity to EntE corrected to substrate competition
[3] = biological target: T2, Enterobactin synthase component E (Escherichia coli K-12) (UniProt P10378); assay: Inhibition of EntE at 0.0006 M
T2 sequence (whole entry): T1 sequence (P10378 whole entry)

Ki [1]	Ki [2]	inhibition [3]	Compound
0.009 µM	0.0045 µM	–	O=C(NOP(=O)(O)OC[C@H]1O[C@@H](n2cnc3cncnc32)[C@H](O)[C@@H]1O)c1cccc(O)c1O
13 µM	–	–	O=C(NOP(=O)(O)OC[C@H]1O[C@@H](n2cnc3cncnc32)[C@H](O)[C@@H]1O)c1ccccc1
0.037 µM	–	–	O=C(NOP(=O)(O)OC[C@H]1O[C@@H](n2cnc3cncnc32)[C@H](O)[C@@H]1O)c1ccccc1O
≥ 1000 µM	–	< 10%	CC(=O)NOP(=O)(O)OC[C@H]1O[C@@H](n2cnc3cncnc32)[C@H](O)[C@@H]1O

Source: ChEMBL document CHEMBL1137423, “Nanomolar inhibition of the enterobactin biosynthesis enzyme, EntE: synthesis, substituent effects, and additivity” (Bioorg Med Chem Lett, 2006)
